From patent US10231463B2, “Food mass suitable for microwaving” (Chemische Fabrik Budenheim KG, priority 2013, dated 2019)

Tests used:
[1] = Pore volume by nitrogen gas adsorption (BJH method, BELSORP-mini II); type: physicochemical; conditions: total pore volume Vp, nitrogen adsorption at 77.3 K
Excerpt: Determining the Pore Volume
The pore volume in accordance with the present invention is characterised by means of gas adsorption. The recording of physisorption isotherms (adsorption and desorption isotherms) of inert gas molecules at low temperatures is routinely used for determining solids parameters.
The BJH method provides an algorithm for the calculation of pore width distribution from nitrogen adsorption data on the assumption of a cylindrical pore geometry. In that respect consideration is given to the change in the adsorbed volume in the pores in dependence on the pore radius, wherein the pore radius distribution function is related as a relative value to the total pore volume. […] It is assumed that the entire pore system is filled with a capillary condensate.

[2] = Thawing and baking trials with yeast-raised wheat frozen doughs in a microwave oven; conditions: yeast-raised wheat frozen dough; for ΔT (temperature difference between crust temperature and crumb temperature): 2 parts by weight additive, 600 watts, 120 seconds; for Microwave activity: assessment scale from ΔT
Experimental: Dough Composition (Basic Recipe):
In addition 2 parts by weight of microwave absorber were added to the basic recipe.
• Mixing and kneading time: 3+2 minutes (the latter in a Stephan mixer) • Dough standing time: 20 minutes • Dough piece weight: 200 g • Cooking time of the dough pieces: 20 minutes • Freezing time: about 4 hours • Deep freeze storage time: about 2 days Thawing and Baking Trials:
The deep-frozen dough pieces were exposed to microwave radiation in a microwave oven from Panasonic (model: NN-GD560M—inverter microwave) for a predetermined period of 120 seconds and with a predetermined microwave power of 600 watts (according to the device indication). After 2 minutes of standing time the temperature of the crust and the crumb was measured by means of an infrared temperature sensor at various measurement points on the dough piece.
Measurement value 1 (M1)=average crust temperature outside
Measurement value 2 (M2)=average crumb temperature in the interior of the dough piece.

[3] = Solubility of the additive in water at 20° C.; type: physicochemical
[4] = Baking trials with ready-to-eat baking mixture (lemon cake) in a microwave oven; conditions: for ΔT (temperature difference between crust temperature and crumb temperature): 2 parts by weight additive, 600 watts, 140 seconds; for Microwave activity: assessment scale from ΔT
Experimental: A ready-to-eat baking mixture for lemon cakes from […] was used as the basic recipe. […] Whole egg and sugar were put into a mixing container and mixed. The powder mixture of the composition (wheat flour, cooking salt and so forth) was slowly mixed in. Vegetable oil, flavouring substances and alcohol were then slowly added and mixing was effected for 12 minutes. After that baking raising agent was added and mixed at a medium stage for a further 2 minutes. After that the microwave absorber was mixed in, the mixer was switched off, and the material was tipped out and stored cool.

[5] = Thawing and baking trials with puff pastry in a microwave oven; conditions: for ΔT (temperature difference between crust temperature and crumb temperature): 2 parts by weight additive, puff pastry dough pieces; for Microwave activity: assessment scale from ΔT, puff pastry doughs
Experimental: A puff pastry from Veripan was used as the basic recipe.
2 parts by weight of microwave absorber were further added to the basic recipe.
Wheat flour, inverted sugar, emulsifier and optionally microwave absorber were put into a mixing container and mixed. The water and 20% of the vegetable fat were added and kneaded for 3 minutes at a low stage and for 5 minutes at a medium stage with a spiral kneader. The dough temperature was monitored. The target temperature was 18° C. After that the remaining vegetable fat was beaten into the dough. The dough was then folded at intervals each of 30 minutes in 4 working steps, more specifically 2 single and 2 double turns. They give by calculation 144 fat layers (margarine), divided into very thin dough and fat layers. Before processing the dough was stored in a cooled condition for 12 hours.
Unbaked puff pastry dough roundels without filling and pre-baked puff pastry dough pockets (hot pockets) with a tomato sauce filling were respectively subjected to microwave radiation as deep-frozen dough pieces in a microwave oven from Panasonic (see Example 2) for a predetermined period and with a predetermined microwave power. After a […] standing time the temperature of the dough piece was measured by means of a thermal imaging camera (Fluke Ti20) and evaluated.
Measurement value 1 (M1)=averaged crust temperature outside
Measurement value 2 (M2)=averaged crumb temperature in the interior of the dough piece.
Puff pastry dough roundel (PPD-RO): 440 watts; 200 seconds
Puff pastry dough hot pockets (PPD-HP): 600 watts; 300 seconds
Table 3 hereinafter reproduces the additives used, the temperature measurement values M1 and M2 and the corresponding temperature difference (ΔT) between crust temperature and crumb temperature of the dough piece.
Assessment of Microwave Activity in Puff Pastry Doughs 1: ΔT=>20° C.=very good 2: ΔT=15 to <20° C.=good 3: ΔT=<15° C.=no additional additive

| Compound | Pore Volume [1] | ΔT (temperature difference between crust temperature and crumb temperature) [2] | Microwave activity [2] | Solubility [3] | ΔT (temperature difference between crust temperature and crumb temperature) [4] | Microwave activity [4] | ΔT (temperature difference between crust temperature and crumb temperature) [5] | Microwave activity [5] |
| --- | --- | --- | --- | --- | --- | --- | --- | --- |
| O=P([O-])(O)O.O=P([O-])(O)O.[Ca+2] [MCPA(V), Monocalcium phosphate anhydrate, reference compound] | 2.3 10^−3 cm^3/g | 17.0 °C | 3 (ΔT=<25° C.=no additional activity) | – | – | – | – | – |
| O=P([O-])(O)O.O=P([O-])(O)O.[Mg+2] [MSPA, Monomagnesium phosphate anhydrate] | 4.5 10^−3 cm^3/g | 41.1 °C | 1 (ΔT=>40° C.=very good) | – | – | – | – | – |
| O=P([O-])([O-])OP(=O)([O-])[O-].[Na+].[Na+].[Na+].[Na+] [TSPP, Tetrasodium pyrophosphate] | 3.3 10^−3 cm^3/g | 40.8 °C | 1 (ΔT=>40° C.=very good) | – | – | – | – | – |
| O=P([O-])([O-])[O-].O=P([O-])([O-])[O-].[Ca+2].[Ca+2].[Ca+2] [TCP, Tricalcium phosphate] | 120 10^−3 cm^3/g | 36.2 °C | 2 (ΔT=25 to 40° C.=good) | – | – | – | – | – |
| O.O.O.O=P([O-])([O-])O.[Mg+2] [DMP, Dimagnesium phosphate trihydrate] | 6.0 10^−3 cm^3/g | 41.9 °C | 1 (ΔT=>40° C.=very good) | – | – | – | – | – |
| O=P([O-])([O-])OP(=O)([O-])OP(=O)([O-])[O-].[K+].[K+].[K+].[K+].[K+] [KTPP(V), Potassium tripolyphosphate, reference compound] | 1.1 10^−3 cm^3/g | 12.3 °C | 3 (ΔT=<25° C.=no additional activity) | >200 mg/mL | – | – | – | – |
| Calcium gluconate [CaGl] | 10.0 10^−3 cm^3/g | 36.6 °C | 2 (ΔT=25 to 40° C.=good) | – | – | – | – | – |
| O=P([O-])(O)OP(=O)([O-])O.[Ca+2] [CAPP, Acid calcium pyrophosphate] | 3.6 10^−3 cm^3/g | 50.0 °C | 1 (ΔT=>40° C.=very good) | – | 21.2 °C | 1 (ΔT=>20° C.=very good) | 26.1 °C | 1 (ΔT=>20° C.=very good) |
| [Mg+2].[OH-].[OH-] [Mg(OH)2, Magnesium hydroxide] | 18.2 10^−3 cm^3/g | 62.5 °C | 1 (ΔT=>40° C.=very good) | – | – | – | – | – |
| Sodium aluminium phosphate 3:2:8 Na3H15Al2*PO4)8 [SALP 2] | 6.4 10^−3 cm^3/g | 20.5 °C | 2 (ΔT=25 to 40° C.=good) | 15 mg/mL | – | – | – | – |
| O.O=P([O-])(O)O.O=P([O-])(O)O.[Ca+2] [MCPM, Monocalcium phosphate monohydrate] | 23 10^−3 cm^3/g | 32.5 °C | 2 (ΔT=25 to 40° C.=good) | – | – | – | – | – |
| O=P([O-])([O-])OP(=O)([O-])[O-].[Cu+2].[Cu+2] [CuPP, Copper-II pyrophosphate] | 12 10^−3 cm^3/g | 37.9 °C | 2 (ΔT=25 to 40° C.=good) | – | – | – | – | – |
| O.O.O=P([O-])([O-])[O-].O=P([O-])([O-])[O-].[Zn+2].[Zn+2].[Zn+2] [TZP, Trizinc phosphate dihydrate] | 6.3 10^−3 cm^3/g | 38.0 °C | 2 (ΔT=25 to 40° C.=good) | – | – | – | – | – |
| O=S(=O)([O-])[O-].O=S(=O)([O-])[O-].[Al+3].[Na+] [SAS, Acid sodium aluminium sulphate] | 3.9 10^−3 cm^3/g | 39.6 °C | 2 (ΔT=25 to 40° C.=good) | – | – | – | – | – |
| O=C([O-])[O-].[Ca+2] [CaCO3, Calcium carbonate] | 9.0 10^−3 cm^3/g | 31.5 °C | 2 (ΔT=25 to 40° C.=good) | – | – | – | – | – |
| O=P([O-])([O-])OP(=O)([O-])[O-].O=P([O-])([O-])OP(=O)([O-])[O-].O=P([O-])([O-])OP(=O)([O-])[O-].[Fe+3].[Fe+3].[Fe+3].[Fe+3] [FePP, Iron-III-pyrophosphate] | 30 10^−3 cm^3/g | 42.6 °C | 1 (ΔT=>40° C.=very good) | – | 26.4 °C | 1 (ΔT=>20° C.=very good) | 16.9 °C | 2 (ΔT=15 to <20° C.=good) |
| O.O.O=P([O-])([O-])O.[Ca+2] [DCPD, Dicalcium phosphate dihydrate] | 5.3 10^−3 cm^3/g | 26.2 °C | 2 (ΔT=25 to 40° C.=good) | – | – | – | – | – |
| O=P([O-])([O-])OP(=O)([O-])[O-].[Mg+2].[Mg+2] [MgPP, Magnesium pyrophosphate] | 7.1 10^−3 cm^3/g | 45.8 °C | 1 (ΔT=>40° C.=very good) | – | 19.1 °C | 2 (ΔT=15 to <20° C.=good) | 15.2 °C | 2 (ΔT=15 to <20° C.=good) |
| O=P([O-])([O-])OP(=O)([O-])[O-].[Zn+2].[Zn+2] [ZPP, Zinc pyrophosphate] | 10.5 10^−3 cm^3/g | 37.9 °C | 2 (ΔT=25 to 40° C.=good) | – | – | – | – | – |
| O=P([O-])([O-])[O-].[Fe+3] [FeOP, Iron-III-orthophosphate] | 19 10^−3 cm^3/g | 47.0 °C | 1 (ΔT=>40° C.=very good) | – | 15.9 °C | 2 (ΔT=15 to <20° C.=good) | 15.1 °C | 2 (ΔT=15 to <20° C.=good) |
| [Cl-].[Cl-].[Mg+2] [MgCl2(V), Magnesium chloride, reference compound] | 2.0 10^−3 cm^3/g | 19.8 °C | 3 (ΔT=<25° C.=no additional activity) | – | – | – | – | – |
| O.O.O.O.O=P([O-])([O-])[O-].O=P([O-])([O-])[O-].[Mg+2].[Mg+2].[Mg+2] [TMP, Trimagnesium phosphate tetrahydrate] | 16 10^−3 cm^3/g | 41.0 °C | 1 (ΔT=>40° C.=very good) | – | – | – | – | – |
| O=C([O-])CC(O)(CC(=O)[O-])C(=O)[O-].O=C([O-])CC(O)(CC(=O)[O-])C(=O)[O-].[Ca+2].[Ca+2].[Ca+2] [TCC, Tricalcium citrate] | 14.2 10^−3 cm^3/g | 28.6 °C | 2 (ΔT=25 to 40° C.=good) | – | – | – | – | – |
| Ammonium molybdate [AmMD(V), reference compound] | 2.6 10^−3 cm^3/g | 24.2 °C | 3 (ΔT=<25° C.=no additional activity) | – | – | – | – | – |
